# Laboratory results from patent publication US7473415B2, “Near infrared fluorescent contrast agent and method for fluorescence imaging” (Fuji Photo Film Co., Ltd., priority 2002, dated 2009).
# Test system: mouse colon carcinoma (colon 26 carcinoma)
# Test: Fluorescence imaging test (Test Example 2), tumor bearing nude mice, excitation 740 nm
# Format: in vivo
# Method: Tumor bearing mice were prepared in the same manner as Test Example 1, and conditions for irradiation was the same as those explained in Test Example 1. Compound 5, Compound 7, and Compound 10 were used as test compounds. Each of the test compounds (0.5 mg/ml) was dissolved in physiological saline or phosphate buffer (pH 7.4) and administered to the mice via a tail vein at the dose of 5.0 mg/Kg. For comparison, the following compound (Compound B, 5 mg/kg, i.v.) was administered to the mice.
# Light was generated using a tunable, pulsed, solid state laser system consisting of an optical parametric oscillator (OPO) pumped by the third harmonic of a Nd:Yag laser (Coherent Inc.). An excitation wavelength of λex=740 nm was chosen and guided with an optical fiber to the tumor bearing nude mice. The dye-specific fluorescence exitance was imaged using a filter combination (Corion) and an intensified CCD camera (Roper Scientific.) at different times after dye administration (FIG. 4). Fluorescence imagings were taken before administration, and 1 min, 10 min, 30 min, 60 min, 2 hours, 4 hours, 24 hours after intravenous dye administration via the lateral tail venous at a standard dose of 5 mg/kg. In the first 60 min, the body temperature of the animals was kept at 38° C. with heating pad. Fluorescence imaging properties of the compounds were compared in nude mice tumor models. […]
Structure (SMILES),"position of tumor within 1 hour after the administration (5 mg/kg, i.v., FIG. 8)",tumor imaging as compared to the reference compound (Compound B) (5.0 mg/Kg via tail vein)
CC1(C)C(/C=C/C=C/C=C/C=C2/N(CCCCS(=O)(=O)[O-])c3ccc(C(=O)NCC(O)C(O)C(O)C(O)CO)cc3C2(C)C)=[N+](CCCCS(=O)(=O)[O-])c2ccc(C(=O)NCC(O)C(O)C(O)C(O)CO)cc21.[Na+] (centres unmarked) [Compound B],not clear,–
CC(/C=C/C=C1/N(CCC(=O)NC(CC(=O)O)C(=O)O)c2ccc3ccccc3c2C1(C)C)=C\C=C\C1=[N+](CCC(=O)NC(CC(=O)O)C(=O)O)c2ccc3ccccc3c2C1(C)C (centres unmarked) [Compound 5],–,clear images of tumors at a shorter time
